Data: US20250228832A1, “METHODS FOR TREATING DISORDERS AMELIORATED BY MUSCARINIC RECEPTOR ACTIVATION” (KARUNA THERAPEUTICS, INC., priority 2022, published 2025)
Like-named read-outs stand apart in the source and are kept apart here.

Key:
[1] = target: T1, human M1 receptor (Homo sapiens, UniProt P11229); test: HTRF IP-One curve shift assay, M1; format: cell-based
T1 construct: expressed in transfected cells
T1 sequence (P11229 1-460): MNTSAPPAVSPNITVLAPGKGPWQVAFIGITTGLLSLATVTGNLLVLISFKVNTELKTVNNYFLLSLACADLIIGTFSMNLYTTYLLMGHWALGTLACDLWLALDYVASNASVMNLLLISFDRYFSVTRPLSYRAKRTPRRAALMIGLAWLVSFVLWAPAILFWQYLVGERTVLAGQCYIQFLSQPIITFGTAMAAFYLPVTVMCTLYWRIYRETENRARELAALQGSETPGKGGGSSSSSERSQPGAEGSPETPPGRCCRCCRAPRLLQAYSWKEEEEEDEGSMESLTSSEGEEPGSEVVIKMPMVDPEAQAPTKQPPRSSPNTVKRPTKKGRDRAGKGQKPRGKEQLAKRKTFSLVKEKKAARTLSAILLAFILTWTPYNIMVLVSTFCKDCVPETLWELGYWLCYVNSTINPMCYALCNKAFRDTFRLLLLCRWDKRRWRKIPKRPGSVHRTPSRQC
Protocol: (§1) HTRF IP-One assays were performed using frozen cell aliquots prepared from CHO-K1 cell lines stably expressing human M1, M3, or M5 receptors. Cells were frozen following typical cell freezing protocols. […] Dissociated cells were quenched in full media and collected by centrifugation at 290×g for 5 min. […] 1 mL aliquots of cells were dispensed into cryovial tubes and frozen in a controlled rate cryo-freezer container at −80° C. Cells were stored at −80° C. (or in liquid nitrogen if stored for at least six months) until the day of the assay.
(§2) On the day before the assay, frozen cells were rapidly thawed in a 37° C. water bath, brought up in 20 mL of full media, and collected via centrifugation at 290×g for 5 min. […] Next, […] of cells (10,000 cells/well) were dispensed into 384-well coming plates in triplicate. Cells were incubated overnight in a 37° C., 5% CO2 cell incubator.
(§3) Then, 2 μL of test compounds were added to the cells and incubated for 10 min at 37° C. in a 5% CO2 cell incubator. Next, 2 μL of diluted agonists serially diluted in assay buffer at 7× final assay concentration was added to assay plates. Finally, assay plates were incubated for two hours at 37° C. in a 5% CO2 cell incubator.
(§4) Six μL of IP-1 detection reagents (IP-One Gq HTRF kit, Cisbio Cat #62IPAPEJ) were dispensed to the cells. First, the plates were incubated for two hours at room temperature (IP-One detection reagents were made according to Cisbio protocol). Then, plates were read on an Envision plate reader following the Cisbio guidelines.
(§5) Raw data for all assays was transmitted directly from plate readers into the Beacon database for processing. All assay plates contained positive and negative control wells for data normalization and scaling. […] All control wells contained DMSO at a final assay concentration that matched the test compound wells.
(§6) Counts from the standard curve wells were used to generate a sigmoidal standard curve, which was used to transform the raw counts from each well on the plate (scaling control wells and compound wells) into a pmol/well IP1 value.

[2] = target: T2, human M5 receptor (Homo sapiens, UniProt P08912); test: HTRF IP-One curve shift assay, M5; format: cell-based
T2 construct: expressed in transfected cells
T2 sequence (P08912 1-532): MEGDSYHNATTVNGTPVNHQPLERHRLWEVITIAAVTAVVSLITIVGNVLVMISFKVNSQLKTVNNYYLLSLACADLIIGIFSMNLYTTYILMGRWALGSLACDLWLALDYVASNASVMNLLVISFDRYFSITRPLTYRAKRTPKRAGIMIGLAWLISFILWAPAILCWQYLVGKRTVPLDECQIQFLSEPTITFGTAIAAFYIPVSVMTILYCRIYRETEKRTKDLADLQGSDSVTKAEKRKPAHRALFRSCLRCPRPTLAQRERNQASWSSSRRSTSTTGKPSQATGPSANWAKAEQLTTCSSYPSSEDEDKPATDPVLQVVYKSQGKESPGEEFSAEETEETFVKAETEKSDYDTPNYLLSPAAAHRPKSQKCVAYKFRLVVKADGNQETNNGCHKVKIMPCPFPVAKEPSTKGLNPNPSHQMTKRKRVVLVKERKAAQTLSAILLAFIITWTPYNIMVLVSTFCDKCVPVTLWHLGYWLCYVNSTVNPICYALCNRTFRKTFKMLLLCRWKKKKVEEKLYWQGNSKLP
Protocol: as §1, §2, §3, §4, §5, §6

[3] = Emraclidine concentration 41.2 nM, read-out: Emax
[4] = Emraclidine concentration 123 nM, read-out: Emax
[5] = Emraclidine concentration 370 nM
[6] = Emraclidine concentration 1110 nM, read-out: Emax
[7] = Emraclidine concentration 3330 nM, read-out: Emax
[8] = MK-4710 concentration 41.2 nM, read-out: Emax
[9] = MK-4710 concentration 123 nM, read-out: Emax
[10] = MK-4710 concentration 1110 nM, read-out: Emax
[11] = MK-4710 concentration 3330 nM, read-out: Emax
[12] = M5, Emraclidine concentration 0 nM
[13] = M5, Emraclidine concentration 41.2 nM, read-out: Emax
[14] = M5, Emraclidine concentration 123 nM, read-out: Emax
[15] = M5, Emraclidine concentration 370 nM, read-out: Emax
[16] = M5, Emraclidine concentration 1110 nM, read-out: Emax
[17] = M5, Emraclidine concentration 3330 nM, read-out: Emax
[18] = M5, Emraclidine concentration […], read-out: Emax
[19] = M5, MK-4710 concentration 41.2 nM, read-out: Emax
[20] = M5, MK-4710 concentration 123 nM, read-out: Emax
[21] = M5, MK-4710 concentration 370 nM, read-out: Emax
[22] = M5, MK-4710 concentration 1110 nM, read-out: Emax
[23] = M5, MK-4710 concentration 3330 nM, read-out: Emax
[24] = M5, MK-4710 concentration […], read-out: Emax

## CCCCCOc1nsnc1C1=CCCCN1C [KTX-517, 3-(1-methyl-1,4,5,6-tetrahydropyridin-2-yl)-4-(pentyloxy)-1,2,5-thiadiazole]
[1]; Emraclidine concentration 0 nM
  EC50: 7 nM
  Emax: 61.6%
[1]; [3]
  Emax: 65.6%
[1]; [4]
  Emax: 66.5%
[1]; [5]
  Emax at […]: 71.3%
[1]; [6]
  Emax: 72.8%
[1]; [7]
  Emax: 79%
[1]; Emraclidine concentration […]
  Emax at […]: 61%
[1]; M4 PAM Emraclidine
  α (cooperativity, affinity shift): 11.3
  β (cooperativity, efficacy shift): 2.2
  τ (agonist pharmacology): 0.0
[1]; M4 PAM MK-4710
  α (cooperativity, affinity shift): 3.5
  β (cooperativity, efficacy shift): 0.6
  τ (agonist pharmacology): 0.0
[1]; MK-4710 concentration 0 nM
  EC50: 8.4 nM
[1]; [8]
  Emax: 81.5%
[1]; [9]
  Emax: 79.6%
[1]; MK-4710 concentration 370 nM
  Emax at […]: 80.9%
[1]; [10]
  Emax: 86.1%
[1]; [11]
  Emax: 85.8%
[1]; MK-4710 concentration […]
  Emax at […]: 77.8%
[2]; [12]
  EC50: 121 nM
  Emax: 41.68%
[2]; M5, Emraclidine concentration 41.2 nM
  EC50: 110 nM
[2]; [13]
  Emax: 45.4%
[2]; M5, Emraclidine concentration 123 nM
  EC50: 118 nM
[2]; [14]
  Emax: 62.7%
[2]; M5, Emraclidine concentration 370 nM
  EC50: 161 nM
[2]; [15]
  Emax at […]: 62.4%
[2]; M5, Emraclidine concentration 1110 nM
  EC50: 243 nM
[2]; [16]
  Emax: 69.3%
[2]; M5, Emraclidine concentration 3330 nM
  EC50: 153 nM
[2]; [17]
  Emax: 72%
[2]; M5, Emraclidine concentration […]
  EC50: 111 nM
[2]; [18]
  Emax at […]: 44.1%
[2]; M5, M4 PAM Emraclidine
  α (cooperativity, affinity shift): 1.0
  β (cooperativity, efficacy shift): 4.5
  τ (agonist pharmacology): 0.1
[2]; M5, M4 PAM MK-4710
  α (cooperativity, affinity shift): 2.2
  β (cooperativity, efficacy shift): 1.9
  τ (agonist pharmacology): 0.0
[2]; M5, MK-4710 concentration 0 nM
  EC50: 168 nM
  Emax: 53.95%
[2]; [19]
  Emax: 62.5%
[2]; [20]
  Emax: 65.7%
[2]; [21]
  Emax at […]: 68%
[2]; [22]
  Emax: 69.6%
[2]; [23]
  Emax: 82.2%
[2]; [24]
  Emax at […]: 54.9%

## CC1OC2(CS1)CN1CCC2CC1 (stereo not shown) [cevimeline, Cevimeline, reference compound]
[1]; Emraclidine concentration 0 nM
  EC50: 1190 nM
  Emax: 73.6%
[1]; [3]
  Emax: 81.4%
[1]; [4]
  Emax: 90.4%
[1]; [5]
  Emax at […]: 95.1%
[1]; [6]
  Emax: 100%
[1]; [7]
  Emax: 103%
[1]; Emraclidine concentration […]
  Emax at […]: 73.2%
[1]; M4 PAM Emraclidine
  α (cooperativity, affinity shift): 1.0
  β (cooperativity, efficacy shift): 1.2
  τ (agonist pharmacology): 0.0
[1]; M4 PAM MK-4710
  α (cooperativity, affinity shift): 3.0
  β (cooperativity, efficacy shift): 0.5
  τ (agonist pharmacology): 0.0
[1]; MK-4710 concentration 0 nM
  EC50: 1750 nM
  Emax: 86.1%
[1]; [8]
  Emax: 102%
[1]; [9]
  Emax: 97.1%
[1]; MK-4710 concentration 370 nM
  Emax at […]: 92.3%
[1]; [10]
  Emax: 83.6%
[1]; [11]
  Emax: 69.9%
[1]; MK-4710 concentration […]
  Emax at […]: 88.8%
[2]; [12]
  EC50: 1370 nM
  Emax: 90.54%
[2]; [13]
  Emax: 92.7%
[2]; [14]
  Emax: 93.5%
[2]; [15]
  Emax at […]: 105%
[2]; [16]
  Emax: 103%
[2]; [17]
  Emax: 106%
[2]; [18]
  Emax at […]: 102%
[2]; M5, M4 PAM Emraclidine
  α (cooperativity, affinity shift): 1.0
  β (cooperativity, efficacy shift): 0.5
  τ (agonist pharmacology): 0.1
[2]; M5, M4 PAM MK-4710
  α (cooperativity, affinity shift): 1.0
  β (cooperativity, efficacy shift): 1.4
  τ (agonist pharmacology): 0.1
[2]; M5, MK-4710 concentration 0 nM
  EC50: 3720 nM
  Emax: 70.31%
[2]; [19]
  Emax: 95.2%
[2]; [20]
  Emax: 88.2%
[2]; [21]
  Emax at […]: 91.1%
[2]; [22]
  Emax: 78.3%
[2]; [23]
  Emax: 91.2%
[2]; [24]
  Emax at […]: 97.3%

## CCCCCCOc1nsnc1C1=CCCN(C)C1 [xanomeline, reference compound]
[2]
  Emax at […]: 80%
[2]; [12]
  Emax: 81.14%
[2]; [13]
  Emax: 78.5%
[2]; [14]
  Emax: 84.2%
[2]; [15]
  Emax at […]: 89%
[2]; [16]
  Emax: 81.9%
[2]; [17]
  Emax: 79.5%
[2]; [18]
  Emax at […]: 79.4%
[2]; M5, M4 PAM Emraclidine
  τ (agonist pharmacology): 0.1
[2]; M5, M4 PAM MK-4710
  τ (agonist pharmacology): 0.0
[2]; M5, MK-4710 concentration 0 nM
  Emax: 77.91%
[2]; [19]
  Emax: 87%
[2]; [20]
  Emax: 86.9%
[2]; [21]
  Emax at […]: 92.9%
[2]; [22]
  Emax: 78.6%
[2]; [23]
  Emax: 83%
